We go through two molecules from patent US10626110B2, “Polymorph of pazopanib hydrochloride and preparation process thereof” (FORMOSA LABORATORIES, INC., priority 2018, dated 2020).

Data set [1] in a line: Stability / storage (statement only, no method described). It counts as physicochemical. Conditions: no data given.
The nature of data set [2]: Solubility analysis in 0.1 M HCl and phosphate buffer (pH 4.5 and pH 6.8). It counts as physicochemical. An excerpt:
The solubility of Pazopanib HCl Form F and Pazopanib HCl Form A in 0.1 M HCl and phosphate buffer (pH4.5 and pH6.8) was examined in the present analysis.

Counter-ions that a name gives are not always drawn. Like-named read-outs stand apart in the source and are kept apart here.

Usually solubility stands for the dissolved amount per volume that the medium holds. With `Cc1ccc(Nc2nccc(N(C)c3ccc4c(C)n(C)nc4c3)n2)cc1S(N)(=O)=O` [Pazopanib HCl Form F, Pazopanib hydrochloride], the Stability result in data set [1] was “better stability, and can be stored for a long time”. Further, the “Solubility (descriptive term)” value in data set [2] (0.1M HCl) is listed as “Very slightly soluble”; in data set [2] (Phosphate buffer, pH 4.5), “Practically insoluble”; in data set [2] (Phosphate buffer, pH 6.8), “Practically insoluble”. Moreover, in data set [2] (0.1M HCl), the “Solubility compared with Pazopanib HCl Form A” value is on record as “better solubility in 0.1 M HCl than Pazopanib HCl Form A”. The same molecule returned a solubility in data set [2] (0.1M HCl, hydrochloride) of 669 µg/mL.
For the molecule `Cc1ccc(Nc2nccc(N(C)c3ccc4c(C)n(C)nc4c3)n2)cc1S(N)(=O)=O` [Pazopanib HCl Form A, Pazopanib hydrochloride], the “Solubility (descriptive term)” value in data set [2] (0.1M HCl) is given as “Very slightly soluble”; in data set [2] (Phosphate buffer, pH 4.5), “Practically insoluble”; in data set [2] (Phosphate buffer, pH 6.8), “Practically insoluble”. Moreover, in data set [2] (0.1 M HCl, simulated gastric fluid, thermodynamic from solid, 0.1M HCl, read-out: Solubility), the solubility was 584 µg/mL.
